According to the Kinase Knowledgebase extract (Sharma et al. 2016):

Biological target: PIK3CA (human) (UniProt P42336)
Assay: Assessment of PIK3CA Kinase Activity

PIK3CA (human), sequence (P42336 whole entry, looked up): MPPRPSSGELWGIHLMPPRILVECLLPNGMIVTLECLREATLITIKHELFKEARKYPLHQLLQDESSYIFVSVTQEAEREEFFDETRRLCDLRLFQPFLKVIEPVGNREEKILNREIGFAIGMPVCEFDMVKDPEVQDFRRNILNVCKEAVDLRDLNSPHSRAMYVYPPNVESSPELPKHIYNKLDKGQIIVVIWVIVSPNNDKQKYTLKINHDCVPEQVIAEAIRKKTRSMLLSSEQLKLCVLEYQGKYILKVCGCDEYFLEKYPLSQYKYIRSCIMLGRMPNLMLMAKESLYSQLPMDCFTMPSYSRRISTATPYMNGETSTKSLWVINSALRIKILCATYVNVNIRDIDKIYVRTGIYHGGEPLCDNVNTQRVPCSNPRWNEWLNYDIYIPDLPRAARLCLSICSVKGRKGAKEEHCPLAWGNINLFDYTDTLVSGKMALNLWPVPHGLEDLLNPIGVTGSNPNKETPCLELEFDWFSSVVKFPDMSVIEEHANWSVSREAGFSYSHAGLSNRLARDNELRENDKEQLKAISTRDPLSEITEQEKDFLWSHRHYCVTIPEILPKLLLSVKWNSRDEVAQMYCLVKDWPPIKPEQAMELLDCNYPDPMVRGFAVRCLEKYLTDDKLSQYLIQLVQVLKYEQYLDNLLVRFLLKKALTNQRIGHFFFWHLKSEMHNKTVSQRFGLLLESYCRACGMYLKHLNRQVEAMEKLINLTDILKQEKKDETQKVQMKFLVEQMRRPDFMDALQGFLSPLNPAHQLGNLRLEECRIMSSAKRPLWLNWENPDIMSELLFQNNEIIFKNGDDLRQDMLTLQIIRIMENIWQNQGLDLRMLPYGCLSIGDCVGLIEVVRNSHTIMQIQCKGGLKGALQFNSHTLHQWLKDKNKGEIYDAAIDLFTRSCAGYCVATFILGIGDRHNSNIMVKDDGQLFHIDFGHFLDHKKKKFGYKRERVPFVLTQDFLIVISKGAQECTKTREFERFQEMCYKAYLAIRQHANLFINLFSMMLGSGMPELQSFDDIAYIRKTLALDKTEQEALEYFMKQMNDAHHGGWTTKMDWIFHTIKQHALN

Row | SMILES | Ki
1 | COc1ccc(Nc2ncc(C3=CCOCC3)cc2-c2nc(C)nc(N)n2)cn1 | 5 nM
2 | COc1ccc(Nc2ncc([C@@H](O)C(C)(C)C)cc2-c2nc(C)nc3[nH]cnc23)cn1 | 12 nM
3 | COc1ccc(Nc2ncccc2-c2nc(C)nc(N)n2)cn1 | 107 nM
4 | COc1ccc(Nc2ncc(CN3CCN(S(=O)(=O)N(C)C)CC3)cc2-c2nc(C)nc(N)n2)cn1 | 17 nM
5 | COc1ccc(Nc2ncc(CO)cc2-c2nc(C)nc(N)n2)cn1 | 63 nM
6 | COc1ncc(Nc2ncc([C@@H](C)CO)cc2-c2nc(C)nc(N)n2)cc1F | 9 nM
7 | COc1ccc(Nc2ncccc2-c2ncnc3[nH]cnc23)cn1 | 7280 nM
8 | COc1ccc(Nc2ncc(-c3cnn(C)c3)cc2-c2nc(C)nc(N)n2)cn1 | 8 nM
9 | COc1ncc(Nc2ncc([C@H](C)CO)cc2-c2nc(C)nc(N)n2)cc1F | 7 nM
10 | COc1ccc(Nc2ncc([C@H](O)C(C)(C)C)cc2-c2nc(C)nc3[nH]cnc23)cn1 | 31 nM
11 | COc1cnc(Nc2cnc(Cl)c(NS(=O)(=O)N(C)C)c2)c(-c2nc(C)nc(N)n2)c1 | 14 nM
12 | Cc1nc(N)nc(-c2cc(Cl)cnc2Nc2cnc(Cl)c(NS(=O)(=O)N(C)C)c2)n1 | 2 nM
13 | COc1ccc(Nc2ncc(Cc3ccccc3)cc2-c2nc(C)nc(N)n2)cn1 | 65 nM
14 | COc1ccc(Nc2ncc(CN3CC[C@@H](CO)C3)cc2-c2nc(C)nc(N)n2)cn1 | 278 nM
15 | COc1cnc(Nc2ccc(OC)nc2)c(-c2nc(C)nc(N)n2)c1 | 55 nM
16 | COc1ccc(Nc2ncc(CN3CCC(S(C)(=O)=O)C3)cc2-c2nc(C)nc(N)n2)cn1 (stereo unspecified) | 16 nM
17 | COc1ccc(Nc2ncc(CN3CCC(O)CC3)cc2-c2nc(C)nc(N)n2)cn1 | 199 nM
18 | COCCOc1cnc(Nc2cnc(Cl)c(NS(C)(=O)=O)c2)c(-c2nc(C)nc(N)n2)c1 | 5 nM

Row | SMILES | Ki
19 | COc1ccc(Nc2ncc(CN3CCOCC3)cc2-c2nc(C)nc(N)n2)cn1 | 104 nM
20 | COCCNCc1cnc(Nc2ccc(OC)nc2)c(-c2nc(C)nc(N)n2)c1 | 283 nM
21 | COc1cccc(Nc2cnc(Nc3ccc(OC)nc3)c(-c3nc(C)nc4[nH]cnc34)c2)c1 | 35 nM
22 | COc1ccc(Nc2ncc(CN3CCC3)cc2-c2nc(C)nc(N)n2)cn1 | 160 nM
23 | COc1ccc(Nc2ncc(CN3CCCC3)cc2-c2nc(C)nc(N)n2)cn1 | 266 nM
24 | COc1ccc(Nc2ncc(Br)cc2-c2nc(C)nc(N)n2)cn1 | 247 nM
25 | COc1ccc(Nc2ncc(Cl)cc2-c2nc(C)nc(N)n2)cn1 | 70 nM
26 | COc1ccc(Nc2ncc(CN3CCN(C)CC3)cc2-c2nc(C)nc(N)n2)cn1 | 258 nM
27 | Cc1nc(N)nc(-c2cccnc2Nc2cccc3[nH]ncc23)n1 | 33 nM
28 | COc1ncc(Nc2ncc(CN3CCN(C(=O)N(C)CC(F)(F)F)CC3)cc2-c2nc(C)nc(N)n2)cc1F | 24 nM
29 | COc1ccc(Nc2ncc(C(O)C(F)(F)F)cc2-c2nc(C)nc(N)n2)cn1 (stereo unspecified) | 33 nM
30 | COc1ccc(Nc2ncc(C)cc2-c2nc(C)nc(N)n2)cn1 | 242 nM
31 | COc1ncc(Nc2ncc(CN3CCN(C(=O)N(C)C4CC4)CC3)cc2-c2nc(C)nc(N)n2)cc1F | 45 nM
32 | COc1ccc(Nc2ncc(CN3CCNCC3)cc2-c2nc(C)nc(N)n2)cn1 | 61 nM
33 | COc1ccc(Nc2ncc(CN3CCC(S(C)(=O)=O)CC3)cc2-c2nc(C)nc(N)n2)cn1 | 22 nM
34 | COc1ccc(Nc2ncc(CN3CCCCC3)cc2-c2nc(C)nc(N)n2)cn1 | 153 nM
35 | COc1ccc(Nc2ncc(CC3CCN(S(C)(=O)=O)CC3)cc2-c2nc(C)nc(N)n2)cn1 | 9 nM
36 | Cc1nc(N)nc(-c2cc([C@@H](C)N3CCOCC3)cnc2Nc2cnc(Cl)c(NS(C)(=O)=O)c2)n1 | 7 nM
